Patent publication US7462600B2, “Macrolides” (Pfizer Inc, priority 2004, dated 2008)
Converted amounts (≈) assume the structure as drawn. Where two headings read alike, the source gives them in different places.

How the values were obtained:
Type in all cases: cell-based
[1] = test system: Streptococcus pneumoniae 1175; settings: microtiter broth dilution
Summary of the method: (§1)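 Where available, resistant strains were tested alongside the susceptible parent they derive from. The MIC, determined by tray-based broth dilution and NCCLS M100-S14 interpretation, served as the comparison value.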

[2] = test system: Streptococcus pneumoniae 1095; settings: microtiter broth dilution
Summary of the method: as §1

[3] = test system: Haemophilus influenzae 1218; experiment: MIC, microtiter broth dilution (NCCLS M100-S14), H. influenzae 1218 (susceptible)
Summary of the method: as §1

[4] = test system: Streptococcus pyogenes 1079; experiment: MIC, microtiter broth dilution (NCCLS M100-S14), S. pyogenes 1079 (ermB)
Summary of the method: as §1

[5] = test system: Streptococcus pneumoniae 1016; experiment: MIC, microtiter broth dilution (NCCLS M100-S14), S. pneumoniae 1016 (susceptible)
Summary of the method: as §1

[6] = H. influenzae 1218 (susceptible)
[7] = S. pneumoniae 1016 (susceptible)

Row | Structure (SMILES) | MIC S. pneumo. 1175 ([1]; Streptococcus pneumoniae 1175) [µg/mL] | MIC S. pneumo. 1095 ([2]; Streptococcus pneumoniae 1095) [µg/mL] | MIC H. influenzae 1218 ([3]; Haemophilus influenzae 1218) [µg/mL] | MIC S. pyogenes 1079 ([4]; Streptococcus pyogenes 1079) [µg/mL] | MIC S. pneumo. 1016 ([5]; Streptococcus pneumoniae 1016) [µg/mL] | MIC S. pneumo. 1175 ([1]; S. pneumoniae 1175 (mefA)) [µg/mL] | MIC S. pneumo. 1095 ([2]; S. pneumoniae 1095 (ermB)) [µg/mL] | MIC H. influenzae 1218 [3, 6] [µg/mL] | MIC S. pyogenes 1079 ([4]; S. pyogenes 1079 (ermB)) [µg/mL] | MIC S. pneumo. 1016 [5, 7] [µg/mL]
1 | CCC1OC(=O)C(C)C(=O)C(C)C(OC2OC(C)CC(N(C)C)C2O)C(C)(OC)CC(C)C(=O)C(C)C2N(C3CN(S(=O)(=O)c4cccc5cnncc45)C3)C(=O)OC12C (stereo not shown) [Example 3.92, 3-descladinosyl-11,12-dideoxy-6-O-methyl-3-oxo-12,11-(oxycarbonyl-(1-(phthalazine-5-sulfonyl)-azetidin-3-yl)-imino)-erythromycin A] | <0.06 | <0.06 | 1 (≈ 1.16 µM) | 4 (≈ 4.65 µM) | <0.06 |  |  |  |  | 
2 | CC[C@H]1OC(=O)[C@H](C)C(=O)[C@H](C)[C@@H](O[C@@H]2O[C@H](C)C[C@H](N(C)C)[C@H]2O)[C@](C)(OC)C[C@@H](C)C(=O)[C@H](C)[C@H]2N(CC3(O)CN(C(=O)c4cnc5ncccc5c4)C3)C(=O)O[C@]12C [7.25] |  |  |  |  |  | 2 (≈ 2.34 µM) | <0.06 | 1 (≈ 1.17 µM) | >64.00 | <0.06
3 | CCC1OC(=O)C(C)C(=O)C(C)C(OC2OC(C)CC(N(C)C)C2O)C(C)(OC)CC(C)C(=O)C(C)C2N(C3CCN(Cc4cccc5cnccc45)C3)C(=O)OC12C [Example 9.07, 3-descladinosyl-11,12-dideoxy-6-O-methyl-3-oxo-12,11-(oxycarbonyl-(1-((isoquinolin-5-yl)-methyl)-(R)-pyrrolidin-3-yl)-imino)erythromycin A] |  |  |  |  |  | 0.12 (≈ 0.146 µM) | <0.06 | 1 (≈ 1.22 µM) | 2 (≈ 2.43 µM) | <0.06
4 | CCC1OC(=O)C(C)C(=O)C(C)C(OC2OC(C)CC(N(C)C)C2O)C(C)(OC)CC(C)C(=O)C(C)C2N(C3CN(S(=O)(=O)c4ccc5nn[nH]c5c4)C3)C(=O)OC12C (stereo not shown) [Example 3.57] | 8 (≈ 9.42 µM) | <0.06 | 1 (≈ 1.18 µM) | 4 (≈ 4.71 µM) | <0.06 |  |  |  |  | 
5 | CCC1OC(=O)C(C)C(=O)C(C)C(OC2OC(C)CC(N(C)C)C2O)C(C)(OC)CC(C)C(=O)C(C)C2N(CC3C4CN(C(=O)OC(C)(C)C)CC43)C(=O)OC12C (stereo not shown) [16.01] |  |  |  |  |  | 25 (≈ 30.9 µM) | 50 (≈ 61.9 µM) | 1.56 (≈ 1.93 µM) | >100.00 | 0.25 (≈ 0.309 µM)
6 | CCOc1ccc(S(=O)(=O)N2CC(N3C(=O)OC4(C)C(CC)OC(=O)C(C)C(=O)C(C)C(OC5OC(C)CC(N(C)C)C5O)C(C)(OC)CC(C)C(=O)C(C)C34)C2)c2cccnc12 (stereo not shown) [Example 3.102, 3-descladinosyl-11,12-dideoxy-6-O-methyl-3-oxo-12,11-(oxycarbonyl-(1-(8-ethoxyquinoline-5-sulfonyl)-azetidin-3-yl)-imino)erythromycin A] | <0.063 | <0.063 | 1 (≈ 1.11 µM) | <0.063 | <0.063 |  |  |  |  | 
7 | CC[C@H]1OC(=O)[C@H](C)[C@@H](OC(=O)N2CCCC2c2cccc(F)c2)[C@H](C)[C@@H](O[C@@H]2O[C@H](C)C[C@H](N(C)C)[C@H]2O)[C@](C)(OC)C[C@@H](C)C(=O)[C@H](C)[C@H]2N(CC3CN(Cc4c[nH]c5ncccc45)C3)C(=O)O[C@]12C (stereo partly shown) [Example 5.06, 3-descladinosyl-11,12-dideoxy-4-O-methyl-12,11-(oxycarbonyl-(1-((1H-pyrrolo[2,3-b]pyridin-3-yl)-methyl)-(azetidin-3-yl)-methyl)-imino)-3-((2-(3-fluorophenyl)-pyrrolidine)-1-carbonyl)-erythromycin A] | <0.06 | <0.06 | 2 (≈ 1.99 µM) | 0.25 (≈ 0.249 µM) | <0.06 |  |  |  |  | 
8 | CCC1OC(=O)C(C)C(=O)C(C)C(OC2OC(C)CC(N(C)C)C2O)C(C)(OC)CC(C)C(=O)C(C)C2N(CC3CN(Cc4cnc5ccccc5n4)C3)C(=O)OC12C (stereo not shown) [4.12] | 0.12 (≈ 0.146 µM) | 8 (≈ 9.71 µM) | 1 (≈ 1.21 µM) | 64 (≈ 77.7 µM) | <0.06 |  |  |  |  | 
9 | CCC1OC(=O)C(C)C(=O)C(C)C(OC2OC(C)CC(N(C)C)C2O)C(C)(OC)CC(C)C(=O)C(C)C2N(CC3CCN(C(=O)c4cncc5ccccc45)C3)C(=O)OC12C (stereo not shown) [13.17] |  |  |  |  |  | 0.25 (≈ 0.294 µM) | >64.00 | 4 (≈ 4.7 µM) | >64.00 | <0.06
10 | CCOc1ccc(S(=O)(=O)N2CC(N3C(=O)OC4(C)C(CC)OC(=O)C(C)C(=O)C(C)C(OC5OC(C)CC(N(C)C)C5O)C(C)(OC)CC(C)C(=O)C(C)C34)C2)cc1C#N (stereo not shown) [Example 3.99, 3-descladinosyl-11,12-dideoxy-6-O-methyl-3-oxo-12,11-(oxycarbonyl-(1-(3-cyano-4-ethoxybenzene-1-sulfonyl)-azetidin-3-yl)-imino)-erythromycin A] | <0.063 | <0.063 | 1.41 (≈ 1.61 µM) | 0.25 (≈ 0.285 µM) | <0.063 |  |  |  |  | 
11 | CCC1OC(=O)C(C)(F)C(=O)C(C)C(OC2OC(C)CC(N(C)C)C2O)C(C)(OC)CC(C)C(=O)C(C)C2N(C3CN(C(C)c4ccnc5ncccc45)C3)C(=O)OC12C (stereo not drawn) [Example 1.32, 3-descladinosyl-11,12-dideoxy-2-fluoro-6-O-methyl-3-oxo-12,11-(oxycarbonyl-(1-(1R-(1,8-naphthyridin-4-yl)-ethyl)-azetidin-3-yl)-imino)-erythromycin A] | 0.25 (≈ 0.297 µM) | <0.06 | 0.5 (≈ 0.594 µM) | 0.12 (≈ 0.143 µM) | <0.06 |  |  |  |  | 
12 | CCC1OC(=O)C(C)C(=O)C(C)C(OC2OC(C)CC(N(C)C)C2O)C(C)(OC)CC(C)C(=O)C(C)C2N(C3CN(S(=O)(=O)c4ccccc4S(C)(=O)=O)C3)C(=O)OC12C (stereo not shown) [Example 3.25, 2-(methylsulfonyl) benzenesulfonyl] | 0.25 (≈ 0.282 µM) | <0.06 | 1 (≈ 1.13 µM) | >64.00 | <0.06 |  |  |  |  | 
13 | CC[C@H]1OC(=O)[C@H](C)[C@@H](OC(=O)N2CCCC2)[C@H](C)[C@@H](O[C@@H]2O[C@H](C)C[C@H](N(C)C)[C@H]2O)[C@](C)(OC)C[C@@H](C)C(=O)[C@H](C)[C@H]2N(CC3CN(Cc4nc5ccccc5[nH]4)C3)C(=O)O[C@]12C [Example 5.11, 2-R^2: (1H-benzo[d]imidazol-2-yl)methyl; R^#: pyrrolidin-1-yl] | <0.06 | 1 (≈ 1.1 µM) | 1 (≈ 1.1 µM) | 32 (≈ 35.1 µM) | <0.06 |  |  |  |  | 
14 | CCC1OC(=O)C(C)C(=O)C(C)C(OC2OC(C)CC(N(C)C)C2O)C(C)(OC)CC(C)C(=O)C(C)C2N(CC3CCN(Cc4ccno4)C3)C(=O)OC12C (stereo not shown) [13.06] |  |  |  |  |  | 0.5 (≈ 0.644 µM) | >64.00 | 2 (≈ 2.57 µM) | >64.00 | <0.06
15 | CCC1OC(=O)C(C)C(=O)C(C)C(OC2OC(C)CC(N(C)C)C2O)C(C)(OC)CC(C)C(=O)C(C)C2N(CC3CCCN3C(=O)c3cccc4[nH]cnc34)C(=O)OC12C (stereo not shown) [10.52] |  |  |  |  |  | <0.06 | <0.06 | 0.25 (≈ 0.298 µM) | 64 (≈ 76.2 µM) | <0.06
16 | CCC1OC(=O)C(C)C(=O)C(C)C(OC2OC(C)CC(N(C)C)C2O)C(C)(OC)CC(C)C(=O)C(C)C2N(CC3CN(Cc4n[nH]c5ncccc45)C3)C(=O)OC12C.O=CO (stereo not shown) [4.43] | 1 | 0.12 | 0.25 | >64.00 | <0.06 |  |  |  |  | 
17 | CCC1OC(=O)C(C)C(=O)C(C)C(OC2OC(C)CC(N(C)C)C2O)C(C)(OC)CC(C)C(=O)C(C)C2N(CC3CN(Cc4cccc(C#N)c4)C3)C(=O)OC12C (stereo not shown) [4.08] | <0.06 | 32 (≈ 40.2 µM) | 0.12 (≈ 0.151 µM) | >64.00 | <0.06 |  |  |  |  | 
